In a melting point compilation (Tetko et al.; mined from patent text by program, amines drawn as free bases though some values may be those of a salt):

Row | Compound | melting point
1 | CCCCCCCCS(=O)(=O)c1ccc(CC(COC(C)=O)(COC(C)=O)NC(C)=O)cc1 | 98 to 100 °C
2 | Cc1ccc2sc(-c3ccccc3)c(N(C)C)c2c1 | 89 to 92 °C
3 | Cc1cc(S(N)(=O)=O)ccc1NC(=O)CCl | 193 to 194 °C
4 | CC(C)c1ccc2oc3cc(C#N)c(O)nc3c(=O)c2c1 | > 300 °C
5 | O=C(O)/C=C/c1ccc(-c2nc3c(=O)n(CCC4=CCCCC4)c(=O)n(CCC4=CCCCC4)c3[nH]2)cc1 | > 250 °C
6 | O=C(NCCCn1cc(Cn2ccnc2)c2ccccc21)Nc1ccccc1 | 177 to 178 °C
7 | Cc1nnc(-c2ccc3occ(-c4cnn(Cc5ccccc5)c4)c3n2)o1 | 194 to 195 °C
8 | O=C(c1ccc(-c2ccccc2)cc1Cl)N1CCCC(Cc2nnn[nH]2)c2ccccc21 (stereo not given) | 191 to 194 °C
9 | CN(C)CC1CCc2cc(NC(=O)N3CCC(c4ccc(F)cc4)CC3)ccc2C1O (stereo not given) | 160 to 163 °C
10 | Cc1c(CO)c2c(c(C)c1NC(=O)NC(C)(C)C)C(c1ccc(C(C)C)cc1)CO2 (single isomer, unassigned; (+)) | 187 to 188 °C
11 | O=C(O)c1ccc(CC2(C(=O)O)CCCN2C(=O)Nc2cc(Cl)cc(Cl)c2)cc1 (stereo not given) | 145 °C
12 | CC(C)c1cc(Cl)cc(C(C)C)c1NC(=O)NS(=O)(=O)c1cccc(C2(C)OCCO2)c1 | 155 to 157 °C
13 | CC12CC3OC3CC1CCC1C2CCC2(C)C(O)C(N3CCCCC3)CC12 (stereo not given) | 153 to 165 °C
14 | CCOC(=O)C(Cc1ccc(OC)cc1SCc1ccc(OC)cc1)(CC(C)C)C(=O)OCC | 59 to 60.5 °C
15 | CC(=O)OCCNC(=O)NCc1ccc(-c2csc(N=C(N)N)n2)o1 | 200 to 202 °C
16 | CN(C)C1(c2ccccc2)CCC(CNCCc2c[nH]c3ccccc23)CC1 (stereo not given) | 78 to 83 °C
17 | CN1CCCC(c2cccc3[nH]ccc23)C1 (stereo not given) | 151 °C
18 | COc1ccc(-n2c(-c3ccccc3)cnc2S)cc1 | 167 °C
19 | COc1ccccc1-n1c(=O)[nH]c2c(C(N)=O)nc(Nc3ccc(Cn4ccnc4)cc3)nc21 | 165 to 170 °C
20 | CCCCCCCCC#CCCCCCCCC(=O)Nc1nc(CC(=O)O)cs1 | 95.5 to 96.5 °C
21 | N#CCc1cc(O)cc2nc(-c3ccc(O)cc3)oc12 | 170 to 180 °C
22 | CC12CCC3C(CCC4C(O)CCCC43C)C1CCC2OC1CCCCO1 (stereo not given) | 167 to 170 °C
23 | CCc1nc(Cl)c([N+](=O)[O-])c(NC2CC2)n1 | 61 to 62 °C
24 | COc1ccc(-c2cc(CO)c(=O)n(Cc3ccc(Cl)cc3)c2)cc1 | 128 °C

Row | Compound | melting point
25 | C=CCc1[nH]cc2c1-c1ccc(Cl)cc1C(c1ccccc1F)=NC2 | 212 to 214 °C
26 | CC(=O)NCC1CC1c1c(Br)ccc2nn(C)cc12 (stereo not given) | 135 to 137 °C
27 | O=S(=O)(Oc1ccc(Oc2ccc(OS(=O)(=O)c3ccccc3)cc2)cc1)c1ccccc1 | 129 to 130 °C
28 | COC(=O)N1C2=C(C(=O)CC(C)(C)C2)C(c2ccc([N+](=O)[O-])cc2)C2=C1CC(C)(C)CC2=O | 189 to 190 °C
29 | CC(Oc1nn(-c2ccccc2)cc1-c1ccccc1)C(=O)O (stereo not given) | 175 to 178 °C
30 | CC(O)c1ccc2c3c1ccn3C(=O)CNC2 (stereo not given) | 295 to 297 °C
31 | CCCCCCCCCCCCCCCCCCSCCCCCCCCCCC(N)=O | 108 °C
32 | CCC[C@H]1C(=O)N[C@H]2CCN[C@@H]21 (relative stereo) | 97 to 100 °C
33 | c1ccc(C(OC2CCN(CCOc3ccc4nncn4n3)CC2)c2ccccc2)cc1 | 149 to 150 °C
34 | COc1cc(CO)c(OC)c(C)c1C | 71 to 72 °C
35 | COC(=O)c1csc2nc(N)sc12 | 221 to 223 °C
36 | OCCc1cc(Br)ccc1O | 63 to 65 °C
37 | N#Cc1ccc(COc2ccc(-c3ccc(C4Cc5ccccc5C(O)C4)cc3)cc2)cc1 (stereo not given) | 172 °C
38 | CCC(Oc1cncc(Br)c1)C(=O)O (stereo not given) | 100 to 102 °C
39 | ClCCc1cc(-c2ccc(Cl)cc2)n(-c2ccc(OCc3ccc4ccccc4n3)cc2)n1 | 105 °C
40 | CCCCNC(=O)NS(=O)(=O)c1cccc(C(=O)OC)c1I | 163 to 167 °C
41 | NCC(=O)Nc1c(Br)cc(Br)cc1Br | 185 to 186 °C
42 | COC(=O)C1CC(O)CN1C(=O)c1cc(OC)c(OC)c(OC)c1 (stereo not given) | 126 °C
43 | C[C@H]1Cn2c(=O)[nH]c3ccc(Br)c(c32)CN1C(=O)OC(C)(C)C | 229 °C
44 | CNC(=O)c1cccc(NC(=O)COc2ccccc2C)c1 | 148 °C
45 | O=C(O)CC1C(CCl)=CCC1O (stereo not given) | 33 to 34 °C
46 | Cc1oc(-c2ccccc2)nc1COc1ccc(COc2cc(CCC(=O)O)n(-c3ccccc3)n2)cc1 | 154 to 155 °C
47 | COc1cc(C(C)=O)ccc1OCCCN1CCN(c2csc3cc(F)ccc23)CC1 | 172 to 174 °C
48 | O=C1c2ccccc2-c2c1c1ccccc1c(=O)n2CCCCCCCCCCNS(=O)(=O)c1ccccc1 | 128 to 130 °C

Row | Compound | melting point
49 | CCCn1c(N)c(N=Cc2ccc(OCC(=O)O)cc2)c(=O)n(CCC)c1=O | 179 to 180 °C
50 | C=CCn1c(=O)c(C(=O)OCC)c(O)c2cnc(-c3ccccc3)nc21 | 174 to 175 °C
51 | COCC(=O)OCc1c(C)n(Cc2ccccc2)c2c(OCc3ccc(F)cc3)nncc12 | 119 to 121 °C
52 | CCC(C)OS(=O)(=O)c1ccc(C(=O)c2cc(Cl)ccc2Cl)cc1 (stereo not given) | 73 to 74 °C
53 | Nc1ncc(C#Cc2ccccc2)c(NCCOCCO)n1 | 128 to 129 °C
54 | CCCC12C3=CCC4CC(OC(C)=O)CCC4(C)C3CCC1(C)C(C(C)CCCC(C)C)CC2O (stereo not given) | 104 °C
55 | CON(c1ccc([N+](=O)[O-])cc1Cl)S(=O)(=O)c1cc(Cl)ccc1Cl | 132 to 133 °C
56 | COc1cc2ncnc(N3CCC(C(O)CN4CCC(C)NS4(=O)=O)CC3)c2cc1OC (stereo not given) | 189 to 193 °C
57 | Cc1nnc(-c2ccc3occ(-c4cc(C(F)(F)F)ccc4F)c3c2)o1 | 178 to 179 °C
58 | Cc1cc(CNC(=O)c2cc(-n3cnn(Cc4ccc(F)cc4)c3=O)n[nH]2)no1 | 276 to 277 °C
59 | CS(=O)(=O)NC[C@@H]1CN(c2ccc(N3CCC(=CC#N)CC3)c(F)c2)C(=O)O1 | 235 to 237 °C
60 | S=c1n(CCc2ccccc2)ccn1C1CCc2ccccc2C1 (stereo not given) | 140 to 142 °C
61 | CSc1ccc(CCOCCCCCC(C)NCC(O)c2ccc(O)c(NS(C)(=O)=O)c2)cc1 (stereo not given) | 133 to 138 °C
62 | COC(=O)CCCc1cc2nc(Cl)ccc2n1S(=O)(=O)c1ccc(C)cc1Cl | 88 to 89 °C
63 | COc1ccc2cc(N)cc(C)c2n1 | 115 to 117 °C
64 | CC(C(=O)N1CCCc2ccccc21)N(C(=O)CN1C(=O)c2ccccc2C1=O)c1ccccc1 (racemic) | 191 °C
65 | CC(C)C(=O)Nc1c(Cl)cccc1C(=O)Nc1ccc(OC(F)(F)F)cc1 | 230 to 233 °C
66 | N#Cc1ccsc1-c1ccc(CBr)cc1 | 80 °C
67 | CCCCc1nc2c(N)nc3cccnc3c2n1CCN | 175 to 176 °C
68 | COc1ccccc1CCC1CNC(=O)O1 (stereo not given) | 76 to 77 °C
69 | O=C(O)[C@H]1CC[C@@H](C(=O)N(Cc2ccccc2)OCc2ccccc2)C1 (relative stereo) | 118 to 120 °C
70 | CCn1c(COC(N)=O)nc(C2CC2)c1Sc1cc(C#N)cc(C#N)c1 | 170 to 172 °C
